The NIST ThermoML archive (doi:10.1016/j.jct.2019.02.025)
Numbers after ± are expanded uncertainties.

Key:
[1] = refractive index (Na D-line) (dimensionless); conditions: 101.33 kPa, Liquid, Standard Abbe refractometry
[2] = for mass density / kinematic viscosity: 101.33 kPa, Liquid; for mass density: Vibrating tube method; for surface tension liquid-gas / kinematic viscosity: Surface laser light scattering (SLLS)

CCCCCCCCCCCC(=O)OCC [ethyl dodecanoate]
Conditions	kinematic viscosity [m2/s]	mass density [kg/m3]	refractive index	surface tension liquid-gas [mN/m]
[1], 278.15 K	–	–	1.43791 ± 0.00051	–
[1], 283.15 K	–	–	1.43583 ± 0.00051	–
[1], 288.15 K	–	–	1.43375 ± 0.00051	–
[1], 293.15 K	–	–	1.43169 ± 0.00051	–
[1], 298.15 K	–	–	1.42961 ± 0.00051	–
[1], 303.15 K	–	–	1.42755 ± 0.00051	–
[1], 308.15 K	–	–	1.42547 ± 0.00051	–
[1], 313.15 K	–	–	1.42335 ± 0.00051	–
[1], 318.15 K	–	–	1.42125 ± 0.00051	–
[1], 323.15 K	–	–	1.41915 ± 0.00051	–
[1], 328.15 K	–	–	1.41707 ± 0.00051	–
[1], 333.15 K	–	–	1.41501 ± 0.00051	–
[1], 338.15 K	–	–	1.41295 ± 0.00051	–
[1], 343.15 K	–	–	1.4109 ± 0.00051	–
[1], 348.15 K	–	–	1.40886 ± 0.00051	–
[1], 353.15 K	–	–	1.40684 ± 0.00051	–
[1], 358.15 K	–	–	1.40479 ± 0.00051	–
[2], 293.15 K	–	862 ± 1.7	–	–
[2], 298.03 K	3.11e-06 ± 1.1e-07	–	–	26.84 ± 0.88
[2], 303.15 K	–	853.15 ± 1.7	–	–
[2], 313.15 K	–	845.31 ± 1.7	–	–
[2], 323.15 K	1.98e-06 ± 7.7e-08	838.31 ± 1.7	–	24.54 ± 0.35
[2], 333.15 K	–	830.53 ± 1.7	–	–
[2], 343.15 K	–	822.74 ± 1.6	–	–
[2], 348.25 K	1.44e-06 ± 6.9e-08	–	–	22.85 ± 0.51
[2], 353.15 K	–	814.95 ± 1.6	–	–
[2], 363.15 K	–	807.16 ± 1.6	–	–
[2], 373.15 K	–	799.37 ± 1.6	–	–
[2], 373.4 K	1.09e-06 ± 3.6e-08	–	–	21.17 ± 0.2
[2], 383.15 K	–	791.55 ± 1.6	–	–
[2], 393.15 K	–	783.72 ± 1.6	–	–
[2], 398.14 K	8.72e-07 ± 2.8e-08	–	–	19.32 ± 0.12
[2], 403.15 K	–	775.85 ± 1.6	–	–
[2], 413.15 K	–	767.94 ± 1.5	–	–
[2], 423.13 K	7.19e-07 ± 2.6e-08	–	–	17.83 ± 0.13
[2], 423.15 K	–	759.99 ± 1.5	–	–
[2], 433.15 K	–	751.6 ± 1.5	–	–
[2], 443.15 K	–	744.05 ± 1.5	–	–
[2], 448.22 K	5.91e-07 ± 2.2e-08	–	–	15.95 ± 0.22
[2], 453.15 K	–	735.97 ± 1.5	–	–

CCCCCCCCCCCC(=O)OC [methyl dodecanoate]
Conditions	kinematic viscosity [m2/s]	mass density [kg/m3]	refractive index	surface tension liquid-gas [mN/m]
[1], 278.15 K	–	–	1.43836 ± 0.0005	–
[1], 283.15 K	–	–	1.43629 ± 0.0005	–
[1], 288.15 K	–	–	1.43422 ± 0.0005	–
[1], 293.15 K	–	–	1.43216 ± 0.0005	–
[1], 298.15 K	–	–	1.43009 ± 0.0005	–
[1], 303.15 K	–	–	1.42802 ± 0.0005	–
[1], 308.15 K	–	–	1.42594 ± 0.0005	–
[1], 313.15 K	–	–	1.42383 ± 0.0005	–
[1], 318.15 K	–	–	1.42171 ± 0.0005	–
[1], 323.15 K	–	–	1.41959 ± 0.0005	–
[1], 328.15 K	–	–	1.4175 ± 0.0005	–
[1], 333.15 K	–	–	1.41542 ± 0.0005	–
[1], 338.15 K	–	–	1.41334 ± 0.0005	–
[1], 343.15 K	–	–	1.41127 ± 0.0005	–
[1], 348.15 K	–	–	1.40922 ± 0.0005	–
[1], 353.15 K	–	–	1.40717 ± 0.0005	–
[1], 358.15 K	–	–	1.40513 ± 0.0005	–
[2], 293.15 K	–	869.26 ± 1.7	–	–
[2], 298.14 K	2.81e-06 ± 1.6e-07	–	–	23.49 ± 1.1
[2], 303.15 K	–	861.25 ± 1.7	–	–
[2], 313.15 K	–	853.32 ± 1.7	–	–
[2], 323.15 K	–	845.42 ± 1.7	–	–
[2], 323.16 K	1.9e-06 ± 7.6e-08	–	–	22.02 ± 0.79
[2], 333.15 K	–	837.53 ± 1.7	–	–
[2], 343.15 K	–	829.63 ± 1.7	–	–
[2], 348.15 K	1.44e-06 ± 4.3e-08	–	–	21.12 ± 0.27
[2], 353.15 K	–	820.84 ± 1.6	–	–
[2], 363.15 K	–	813.94 ± 1.6	–	–
[2], 373.15 K	–	806.11 ± 1.6	–	–
[2], 373.17 K	1.14e-06 ± 3.4e-08	–	–	19.82 ± 0.38
[2], 383.15 K	–	798.22 ± 1.6	–	–
[2], 393.15 K	–	790.34 ± 1.6	–	–
[2], 398.27 K	9.1e-07 ± 3.2e-08	–	–	18.66 ± 0.26
[2], 403.15 K	–	782.4 ± 1.6	–	–
[2], 413.15 K	–	774.39 ± 1.6	–	–
[2], 423.15 K	–	766.34 ± 1.5	–	–
[2], 423.25 K	7.36e-07 ± 2.7e-08	–	–	17.48 ± 0.12
[2], 433.15 K	–	758.26 ± 1.5	–	–
[2], 443.15 K	–	750.06 ± 1.5	–	–
[2], 448.25 K	5.99e-07 ± 2.2e-08	–	–	15.99 ± 0.09
[2], 453.15 K	–	741.94 ± 1.5	–	–
